Test results taken from ChEMBL document CHEMBL3507680, “University of Dundee, Gates Library screen for HepG2 cell viability”.

Assay: Human HepG2 cell viability assay in 384 well format
Format: toxicity, cell-based
Set-up: dose 125 nL, time 70.5 hour; cytotoxicity at 70.5 h: concentration not given beside the values
Conditions: HepG2 cells, read-out: Inhibition

Structure (SMILES)	cytotoxicity at 70.5 h
CN(Cc1ccc(C(=O)NCC2COCCO2)c(=O)[nH]1)CC(C)(C)C (centres undefined)	6.27%
CCS(=O)(=O)Nc1cnn(Cc2cccc(C)c2)c1	-3.36%
CCn1c(CN2CCCC(Cn3cncn3)C2)nc2c(F)cccc21 (centres undefined)	1.73%
CN(C)CC(C)(O)CNC(=O)Nc1sc2ccccc2c1Cl (centres undefined)	8.3%
Cc1ncsc1-c1nnc(C2CCCN2C(=O)Cn2cccn2)o1 (centres undefined)	3.13%
CCS(=O)(=O)N1CCC(n2nc(-c3cc(C)oc3C)ccc2=O)CC1	24.5%
CCc1ncc(C(=O)N(C)C2Cc3ccccc3C2)cn1	2.28%
Cc1cc(N2CCCC2c2nnc3n2CCCCC3)nc(N)n1 (centres undefined)	22.8%
Cc1cnn(CC2CCCN2C(=O)CCc2ccc3c(c2)OCO3)c1 (centres undefined)	20.8%
CC(C)c1noc(CN2CCN(C(=O)c3ccncc3F)CC2)n1	-9.24%
Cc1ccc(-c2nc(CN3CCCC(Cn4cncn4)C3)cs2)o1 (centres undefined)	6.82%
O=C(NCC(F)(F)F)c1nnn(-c2ccccc2)c1C(F)(F)F	-4.56%
COCCNC(=O)Nc1ccc(-c2nc(C(C)C)no2)cc1	-6.61%
Cc1cnn(CC2CCCN2CC(=O)NC2CCN(C3CC3)CC2)c1 (centres undefined)	-3.72%
CC(C)CCNc1nc(C(=O)NC2CC2)cs1	6.98%
Cc1cnn(C2CCCN(C(=O)c3cn(-c4ccccc4)nn3)C2)c1 (centres undefined)	-6.41%
COc1ccccc1C(C)CNC(=O)c1[nH]ncc1Br (centres undefined)	3.61%
Cc1cc(CN(C)C(=O)CC(C)C)no1	-2.9%
Cc1noc(NCc2cc(F)ccc2F)n1	-3.22%
Cc1cc(NC(=O)Cn2cnc(-c3cccs3)cc2=O)no1	-2.01%
CCCc1noc(C(C)N2CCN(CCn3ccccc3=O)CC2)n1 (centres undefined)	-2.24%
O=C(c1cccnc1O)N(Cc1ccsc1)CC1CCCO1 (centres undefined)	8.65%
CN(CC(=O)Nc1cc(C(C)(C)C)n[nH]1)S(C)(=O)=O	12%

Structure (SMILES)	cytotoxicity at 70.5 h
CC(=O)N1CCC(N2CC(Cc3nccc4ccn(C)c34)C2)CC1	-6.03%
Fc1ccc(CN2CCCn3cnc(COCC4CC4)c3C2)cc1	2.87%
CO[C@@H]1CO[C@@]2(CCN(C(=O)COc3ccccc3C)C2)C1	-2.61%
CC(C)n1cnc(C2CN(C)c3ccc(C(=O)NCC4CC4)cc32)n1 (centres undefined)	-3.88%
CCOc1ccc(NC(C)=O)cc1S(=O)(=O)Nc1cc(C)on1	-6.08%
CCCc1nnc(C(=O)N(C)Cc2ccc(OC)cc2)o1	-2.69%
O[C@@H]1C[C@@H](c2nc(-c3ccc(OC(F)(F)F)cc3)no2)N(CC2CC2)C1	-4.09%
Cc1nc(CN2CCC2(CCCc2ccccn2)C(=O)N(C)C)co1 (centres undefined)	-5.18%
O=C(c1csnn1)N1CCCC(n2cncn2)C1 (centres undefined)	15.3%
O=C(NCC(O)c1cccc(F)c1)C1CCN(C2CCCCC2)CC1 (centres undefined)	-16.4%
COCCN1CCC2(COCc3cnc(N4CCOCC4)nc32)C1 (centres undefined)	28.1%
CN(Cc1ccncc1)C1COC2(CCN(Cc3ccco3)CC2)C1 (centres undefined)	9.94%
Cc1cc(C)nc(N2CCC(CNC(=O)c3ccccn3)CC2)n1	2.6%
CCc1nc2n(n1)CC(NCc1nc3ccccc3nc1C)CC2 (centres undefined)	1.64%
OCc1cn(Cc2cccc(F)c2)nn1	-12.4%
CN(C)[C@@H]1CO[C@H](CNC(=O)c2ccccc2)[C@H]1O	-8.77%
CC(C)N(Cc1ccccn1)C(=O)CN(C)C(=O)c1cccs1	-22.7%
CC(CNC(=O)c1cn(-c2ccccc2)nn1)Cn1cccn1 (centres undefined)	13.9%
Cc1cc(CN2CCN(C(=O)NCc3ccc(C)s3)CC2)no1	-27.6%
O=C(N[C@@H]1CN[C@@H]2CCCO[C@@H]21)c1cscn1	-3.45%
Cc1nnc(CN(C)CC(=O)NCCc2ccc(F)cc2)n1C	-5.46%
FC(F)(F)C1CCCn2c(CNCc3ccco3)nnc21 (centres undefined)	35.4%
NC[C@H]1CC[C@H](C(NC(=O)c2ccccc2)c2ccccn2)CC1 (some centres undefined)	11.1%

Structure (SMILES)	cytotoxicity at 70.5 h
CCC(=O)NCC(c1ccc(SC)cc1)N1CCc2sccc2C1 (centres undefined)	-8.32%
CCN1CCc2[nH]cnc2C12CCN(c1ccc(Cl)c(C(=O)O)n1)CC2	-2.9%
CN1CCc2c(C#N)c(NCc3ccco3)n3cnnc3c2C1	-7.42%
CN(C)c1ncc(NC(=O)c2ccccc2C(F)(F)F)cn1	-4.64%
O=C(Cn1nc2c(cc1=O)CSCC2)N[C@@H](Cc1ccccc1)C(=O)O	-5.32%
CC(=O)Nc1ccc(C(=O)N2CCOc3nc(C)ccc32)cc1	-0.0601%
CC(=O)c1cccc(NC(=O)Cn2cc(I)cn2)c1	-9.34%
CCS(=O)(=O)N1C[C@H]2CN(c3cnn(C)c3)C(=O)[C@H]2C1	-5.61%
CCN(c1ccc(C(=O)N2CCC(C)CC2)cc1)S(=O)(=O)CC	2.02%
Cc1ncsc1COC(=O)c1cccc2c1OCCO2	-5.64%
Cc1nn(C)c(N2CCOCC2)c1CNC1CCCCNC1=O (centres undefined)	-5.43%
COc1ccc2ncn(Cc3ncc[nH]3)c(=O)c2c1	2.5%
Cc1nnc(C(C)NCC2(c3ccc(Cl)cc3)CCCC2)o1 (centres undefined)	-7.22%
O=C(NCCn1cccn1)c1nnc2ccccc2n1	19.4%
Cc1c(CN2C[C@H](O)[C@@H](N3CCOCC3)C2)[nH]c2ccc(F)cc12	12.2%
CC(O)CNCc1ccccc1C(F)(F)F (centres undefined)	-5.36%
COc1cc2c(cc1OC)S(=O)(=O)N(Cc1cnn(C)c1)C2=O	-22.9%
O=C(CN1CCCS1(=O)=O)NCCOc1ccc2c(c1)CCC2	5.58%
c1ccc(CNc2ncc(CN3CCCN4CCC[C@H]4C3)cn2)cc1	-3.55%
NC(=O)c1cc(NC(=O)NCCc2cc(F)cc(F)c2)ccc1F	10.2%
CC(=O)N1CCN(Cc2ccc(C(F)(F)F)cc2F)CC(O)C1 (centres undefined)	-10.5%
CC(C)c1nc2c(n1C)CCN(Cc1cccc(OCC(N)=O)c1)C2	0.112%
CC(Nc1nc2c(cnn2C)c(=O)[nH]1)c1ccc2c(c1)CCCC2 (centres undefined)	-3.73%

Structure (SMILES)	cytotoxicity at 70.5 h
Cc1ccc(S(=O)(=O)NCC(C)C#N)cc1Br (centres undefined)	-4.59%
CCN1CC2(CC1=O)CN(C(=O)COC)CCN(S(C)(=O)=O)C2 (centres undefined)	-11%
CC(C)n1nc(Cn2cccc2)c2c1CN(C1CCOCC1)C2	0.409%
O=S(=O)(C1CC1)N1CC[C@H]2OCC[C@@]2(COc2ncccc2F)C1	-12.6%
CCO[C@H]1C[C@@H](O)C12CCN(C(=O)CC(F)(F)F)CC2	-7.18%
CS(=O)(=O)N1CCOCC2(CCN(C(=O)c3cccnc3)CC2)C1	-7.84%
O=C(NCc1nnc2n1CCC2)c1ccc(C2CCCO2)s1 (centres undefined)	-4.87%
CC(C)S(=O)(=O)N1CCC(c2cc3n(n2)[C@@H](C(F)(F)F)C[C@@H](C)N3)C1 (some centres undefined)	-11%
CC(c1nc(C(C)(C)C)no1)S(=O)(=O)CC(=O)N1CCCC1 (centres undefined)	-2.18%
O=C(NCC1(CO)CC1)c1ccccc1F	-8.21%
COCCN1C[C@@H]2[C@@H](OC)CCN(C(=O)Cc3ccccc3)[C@@H]2C1	-1.17%
c1cnc(Nc2cncc(C3CCCN3)n2)cn1 (centres undefined)	-3.08%
Cn1ccc(C(=O)NC2CCC23CCN(Cc2cccnc2)CC3)c1 (centres undefined)	-7.38%
C[C@@H]1C[C@H](C(F)(F)F)n2nc(C3CCN(S(=O)(=O)N(C)C)CC3)cc2N1	-5.83%
CCS(=O)(=O)NCC(=O)N1CCC(c2cc3ccccc3[nH]2)CC1	1.52%
O=C(NCCc1c[nH]c2ccc(F)cc12)C1(n2cnnn2)CCCCC1	-22.2%
NCCCC(=O)NCC1(O)CCCN(c2ccnc3cccnc23)C1 (centres undefined)	-4.51%
CC(C)c1cc(C(=O)N2CCC3(CC2)c2ccccc2[C@@H](N)[C@@H]3O)cs1	-10.7%
C[S+]([O-])c1cccc(NC(=O)N(CCC#N)Cc2ccccn2)c1 (centres undefined)	-12%
CS(=O)(=O)N1CCOCC2(CN(Cc3nccs3)CCO2)C1 (centres undefined)	15.5%
CCC(C(=O)N1CCCN(CCN(C)C)CC1)N1CCCC1=O (centres undefined)	0.544%
Cc1cc(NC(=O)CN2CCCC(Cn3nc(C)nc3C)C2)n(C)n1 (centres undefined)	-2.11%
O=C(CCC(=O)N1CCCC1c1cccs1)N1CCc2sccc2C1 (centres undefined)	2.92%

Structure (SMILES)	cytotoxicity at 70.5 h
COc1cc(-c2n[nH]c(CN)n2)cc(OC)c1OC	23.8%
Cc1[nH]ncc1C(C)NCc1cccnc1 (centres undefined)	5.33%
O=C1CC(c2ccc(C(=O)O)cc2)c2ncn(-c3cccc(F)c3)c2N1 (centres undefined)	-24.3%
O=C(c1ncn2c1CNS(=O)(=O)c1ccccc1-2)N1CCCCCC1	0.0876%
Cc1ccc(NCc2ccc(C#N)cc2)c(CN(C)C)c1	15.8%
NCCN1CCC(c2nnc(Cn3ccnc3)n2C2CC2)CC1	-3.91%
COC1CN(C(=O)CC(C)(C)C)CCC(=O)N(C)c2ccccc21 (centres undefined)	-4.95%
CCc1[nH]c2c(CNC(=O)C3CCS(=O)(=O)CC3)cc(C)cc2c1C	-7%
Cc1cc(CNC(=O)Cc2cccs2)ccc1S(C)(=O)=O	4.24%
c1cc(CNCc2ccc3c(c2)CCO3)cc(N2CCOCC2)n1	-9.64%
CN(CCNC(=O)N1CCCC1)C(=O)OC(C)(C)C	-11.5%
COCCNC(=O)NC(C)COc1ccc(F)cc1F (centres undefined)	-0.107%
CN1CCN(c2ncc3c(c2C(=O)O)CCN(C2CCOC2)C3)CC1 (centres undefined)	-7.02%
Cc1ncncc1C(=O)N1CCCC(n2cccn2)C1 (centres undefined)	8.65%
CCc1ccc(CN2C[C@@H](C)C3(CCN(CC(=O)N(C)C)C3=O)C2)o1 (some centres undefined)	-6.86%
CN(c1ncc(S(N)(=O)=O)s1)C1CCc2ccccc21 (centres undefined)	-1.27%
CCc1nc(C2CCCN2Cc2nc(Cc3ccccc3)no2)no1 (centres undefined)	-0.88%
CCN(CC)c1ccc2ccc(C(=O)NC3CC3)cn12	-0.636%
CC(NC(=O)C1CCN(C(C)C)CC1)c1nncn1C1CCCC1 (centres undefined)	-4.33%
CCC(CC)C(=O)N1CCOC2(CNC2)C1	6.77%
COc1ccc(CNC(=O)CNc2ccccc2OC)cc1	2.91%
Cc1ccc2c(c1)OCCCC2NCc1nnc2n1CCCCC2 (centres undefined)	-6.04%
